{
  "source": "paper PMC11701132",
  "about": "“Tau is a receptor with low affinity for glucocorticoids and is required for glucocorticoid-induced bone loss” (Cell Research, 2025)",
  "key": {"GPR97": {"target": "T1, GPR97 (Homo sapiens, UniProt Q86Y34)", "T1 construct": "gene ADGRG3; full-length human protein with N-terminal glutathione S-transferase tag on microarray", "T1 sequence (Q86Y34 21-549)": "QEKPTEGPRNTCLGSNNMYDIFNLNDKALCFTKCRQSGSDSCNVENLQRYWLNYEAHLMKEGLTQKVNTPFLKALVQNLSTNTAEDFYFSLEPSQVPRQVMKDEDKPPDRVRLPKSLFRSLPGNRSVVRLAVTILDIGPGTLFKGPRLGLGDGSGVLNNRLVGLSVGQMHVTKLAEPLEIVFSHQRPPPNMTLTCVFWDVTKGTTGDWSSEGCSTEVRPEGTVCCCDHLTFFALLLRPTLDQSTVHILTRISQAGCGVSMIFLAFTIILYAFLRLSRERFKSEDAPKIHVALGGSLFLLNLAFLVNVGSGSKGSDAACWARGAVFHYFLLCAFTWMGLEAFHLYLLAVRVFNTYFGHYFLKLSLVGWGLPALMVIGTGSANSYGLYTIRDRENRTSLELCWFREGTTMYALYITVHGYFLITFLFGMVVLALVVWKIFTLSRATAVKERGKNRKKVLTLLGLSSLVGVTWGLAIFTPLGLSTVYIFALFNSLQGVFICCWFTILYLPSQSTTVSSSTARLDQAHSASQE", "assay": "HuProt human proteome microarray with biotin-labeled dexamethasone ([…])", "type": "binding"}, "Tau": {"target": "T2, Tau (Homo sapiens, UniProt P10636)", "T2 construct": "gene MAPT; purified Tau protein", "T2 sequence (P10636 1-441 isoform P10636-8)": "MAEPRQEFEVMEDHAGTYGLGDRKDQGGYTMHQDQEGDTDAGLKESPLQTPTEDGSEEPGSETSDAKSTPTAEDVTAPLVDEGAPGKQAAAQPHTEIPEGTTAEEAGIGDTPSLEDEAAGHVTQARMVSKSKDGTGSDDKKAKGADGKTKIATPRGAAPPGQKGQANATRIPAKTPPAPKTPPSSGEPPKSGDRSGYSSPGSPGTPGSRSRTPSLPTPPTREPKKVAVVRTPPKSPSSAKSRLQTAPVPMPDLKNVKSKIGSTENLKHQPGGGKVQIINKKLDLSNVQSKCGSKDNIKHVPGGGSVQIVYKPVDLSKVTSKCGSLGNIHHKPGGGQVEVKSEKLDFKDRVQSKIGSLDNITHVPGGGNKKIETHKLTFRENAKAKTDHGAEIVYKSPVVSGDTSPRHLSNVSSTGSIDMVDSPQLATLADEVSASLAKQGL", "assay": "one-step kinetic SPR (KD […]); solid phase binding with biotin-dexamethasone ([…]); DARTS in Raw264.[…] lysate ([…])"}},
  "note": "pKd: −log10 of the molar value.",
  "data": [
    {"smiles": "C[C@@H]1C[C@H]2[C@@H]3CCC4=CC(=O)C=C[C@]4(C)[C@@]3(F)[C@@H](O)C[C@]2(C)[C@@]1(O)C(=O)CO", "note": "[dexamethasone]", "values": [
      {"measurement": "HuProt human proteome microarray with biotin-labeled dexamethasone (0.2 and 400)", "setting": "GPR97", "value": "dexamethasone bound to GR and GPR97, two known receptors of dexamethasone"},
      {"measurement": "pKd", "setting": "Tau", "value": "~3.42"}
    ]}
  ]
}
